Literature values in patent US6051591A, “Diazabicyclooctane derivatives” (Merck Sharp & Dohme Ltd., priority 1995, dated 2000).

How the values were obtained:
[1] = test system: human 5-HT1Dα and 5-HT1Dβ receptor subtypes; conditions: cf. WO-A-91/17174, Table 1
[2] = therapeutic doses

discrimination between human 5-HT1Dα and 5-HT1Dβ receptor subtypes [1]: barely discriminates
Structure (SMILES): CNS(=O)(=O)Cc1ccc2[nH]cc(CCN(C)C)c2c1 [sumatriptan]
adverse cardiovascular events in humans [2]: certain adverse cardiovascular events
